Results taken from patent publication US10758534B2 (Vertex Pharmaceuticals Incorporated, priority 2014, dated 2020).

Molecular target: T1, F508del (Homo sapiens, UniProt P13569, DEL508-508)
T1 construct: expressed in transfected cells
Experiment: Protocol 2: FRET membrane potential optical assay (VIPR), identification of correction compounds
Type: cell-based
Details: Table 3; compounds of Table 1 as modulators of CFTR activity; protocol not stated
Method in brief: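 Correction of the F508del trafficking defect is scored as forskolin (10 μM)/genistein (20 μM)-stimulated Cl^− efflux in NIH3T3 mouse fibroblasts after a 16 hr, 37° C. compound exposure. Depolarization was followed optically using voltage-sensing FRET dyes.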

T1 sequence (P13569 with tags, fused parts or gaps DEL508-508): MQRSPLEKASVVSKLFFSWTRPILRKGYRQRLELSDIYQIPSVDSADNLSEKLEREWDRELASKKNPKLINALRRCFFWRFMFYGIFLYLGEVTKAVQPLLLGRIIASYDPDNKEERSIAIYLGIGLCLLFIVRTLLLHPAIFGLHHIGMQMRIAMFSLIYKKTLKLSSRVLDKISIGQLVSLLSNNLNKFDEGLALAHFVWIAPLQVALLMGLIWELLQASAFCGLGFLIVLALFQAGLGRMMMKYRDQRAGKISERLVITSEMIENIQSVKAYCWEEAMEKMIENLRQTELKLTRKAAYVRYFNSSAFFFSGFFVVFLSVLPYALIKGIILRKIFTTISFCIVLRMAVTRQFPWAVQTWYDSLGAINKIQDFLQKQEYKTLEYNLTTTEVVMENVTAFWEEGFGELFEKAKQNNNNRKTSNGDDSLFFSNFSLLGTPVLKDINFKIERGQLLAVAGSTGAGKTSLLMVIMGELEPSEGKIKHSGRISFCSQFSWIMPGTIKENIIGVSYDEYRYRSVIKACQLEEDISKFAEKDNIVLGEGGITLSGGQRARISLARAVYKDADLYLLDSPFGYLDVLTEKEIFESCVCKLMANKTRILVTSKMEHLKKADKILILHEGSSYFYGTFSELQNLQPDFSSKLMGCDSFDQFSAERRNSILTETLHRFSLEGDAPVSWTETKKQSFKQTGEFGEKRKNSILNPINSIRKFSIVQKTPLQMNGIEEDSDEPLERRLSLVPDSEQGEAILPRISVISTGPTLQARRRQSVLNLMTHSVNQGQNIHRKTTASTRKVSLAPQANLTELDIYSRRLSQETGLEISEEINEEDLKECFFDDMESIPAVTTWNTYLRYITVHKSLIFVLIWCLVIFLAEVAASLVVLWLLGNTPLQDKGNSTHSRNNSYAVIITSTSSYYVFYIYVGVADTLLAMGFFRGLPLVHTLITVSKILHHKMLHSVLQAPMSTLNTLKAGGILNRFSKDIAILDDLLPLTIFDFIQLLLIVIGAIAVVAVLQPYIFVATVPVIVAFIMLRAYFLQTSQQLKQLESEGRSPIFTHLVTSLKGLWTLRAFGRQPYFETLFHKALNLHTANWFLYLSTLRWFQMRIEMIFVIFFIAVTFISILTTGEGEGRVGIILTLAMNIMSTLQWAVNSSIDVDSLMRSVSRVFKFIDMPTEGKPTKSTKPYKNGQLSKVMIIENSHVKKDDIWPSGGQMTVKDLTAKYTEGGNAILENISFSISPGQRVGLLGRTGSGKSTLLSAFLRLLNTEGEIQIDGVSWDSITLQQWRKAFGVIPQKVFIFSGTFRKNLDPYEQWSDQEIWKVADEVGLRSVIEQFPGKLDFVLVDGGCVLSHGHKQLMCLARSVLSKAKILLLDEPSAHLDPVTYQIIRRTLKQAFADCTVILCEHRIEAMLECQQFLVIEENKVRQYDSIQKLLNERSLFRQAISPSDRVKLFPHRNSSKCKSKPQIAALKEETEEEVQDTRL

CC(C)Oc1ccc(-c2ccc(C(=O)NS(=O)(=O)c3cccc(N)n3)c(N3CCC(Cc4ccccc4)C3)n2)cn1 (centres unmarked) [Compound 647, N-[(6-amino-2-pyridyl)sulfonyl]-2-(3-benzylpyrrolidin-1-yl)-6-(6-isopropoxy-3-pyridyl)pyridine-3-carboxamide] was tested, and the EC30 was “+++ (“+++” means <3 uM)”.

CCOc1cccc2c1CN(Cc1c(C)cc(C)cc1C)C2(C)C(=O)NS(=O)(=O)c1cccnc1OC (centres unmarked) [Compound 648, 4-ethoxy-N-[(2-methoxy-3-pyridyl)sulfonyl]-1-methyl-2-[(2,4,6-trimethylphenyl)methyl]isoindoline-1-carboxamide] was tested, and the EC30 was “+++ (“+++” means <3 uM)”.

With CC(C)(C)c1ccc(C(=O)NS(=O)(=O)c2cccc(N)n2)c(OC2CCCCC2)n1 [Compound 649, N-[(6-amino-2-pyridyl)sulfonyl]-6-tert-butyl-2-(cyclohexoxy)pyridine-3-carboxamide] the EC30 was “++ (“++” means between 3 uM and 10 uM)”.

With Cc1cc(C)c(Oc2nc(NC(C)C)ccc2C(=O)NS(=O)(=O)c2cccc(N)n2)c(C)c1 [Compound 650, N-[(6-amino-2-pyridyl)sulfonyl]-6-(isopropylamino)-2-(2,4,6-trimethylphenoxy)pyridine-3-carboxamide] the EC30 was “++ (“++” means between 3 uM and 10 uM)”.

With CC(C)COc1cc(F)cc(-c2ccc(C(=O)NS(=O)(=O)c3cccc(N)n3)c(N3CCC[C@H](c4ccccc4)C3)n2)c1 [Compound 651, N-[(6-amino-2-pyridyl)sulfonyl]-6-(3-fluoro-5-isobutoxy-phenyl)-2-[(3R)-3-phenyl-1-piperidyl]pyridine-3-carboxamide] the EC30 was “+++ (“+++” means <3 uM)”.

With COc1cc(F)cc(-c2ccc(C(=O)NS(=O)(=O)c3ccc[nH]c3=O)c(Oc3c(C)cc(C)cc3C)n2)c1 [Compound 652, 6-(3-fluoro-5-methoxy-phenyl)-N-[(2-oxo-1H-pyridin-3-yl)sulfonyl]-2-(2,4,6-trimethylphenoxy)pyridine-3-carboxamide] the EC30 was “++ (“++” means between 3 uM and 10 uM)”.

With Cc1ccc(-n2c(C(=O)NS(=O)(=O)c3cccc(N)n3)cc3cc(C)ccc32)cc1 [Compound 653, N-[(6-amino-2-pyridyl)sulfonyl]-5-methyl-1-(p-tolyl)indole-2-carboxamide] the EC30 was “+ (“+” means greater than 10 uM)”.

With Cc1cc(C)c(Oc2nc(-c3ccccc3)ccc2C(=O)NS(=O)(=O)c2ccc[nH]c2=O)c(C)c1 [Compound 654, N-[(2-oxo-1H-pyridin-3-yl)sulfonyl]-6-phenyl-2-(2,4,6-trimethylphenoxy)pyridine-3-carboxamide] the EC30 was “+++ (“+++” means <3 uM)”.

In the case of CC(C)COc1cc(F)cc(-c2ccc(C(=O)NS(=O)(=O)c3cccc(N)n3)c(N3CCCC(C4CC4)C3)n2)c1 (centres unmarked) [Compound 655, N-[(6-amino-2-pyridyl)sulfonyl]-2-(3-cyclopropyl-1-piperidyl)-6-(3-fluoro-5-isobutoxy-phenyl)pyridine-3-carboxamide], the EC30 is reported as “+++ (“+++” means <3 uM)”.

In the case of CC(C)Oc1ccc(-c2ccc(C(=O)NS(=O)(=O)c3cccc(N)n3)c(N3CCCC(CC(F)(F)F)C3)n2)cn1 (centres unmarked) [Compound 656, N-[(6-amino-2-pyridyl)sulfonyl]-6-(6-isopropoxy-3-pyridyl)-2-[3-(2,2,2-trifluoroethyl)-1-piperidyl]pyridine-3-carboxamide], the EC30 is reported as “+++ (“+++” means <3 uM)”.

CC(C)COc1cc(F)cc(-c2ccc(C(=O)NS(=O)(=O)c3cccc(N)n3)c(N3CC[C@@H](C)C3(C)C)n2)c1 [Compound 657, N-[(6-amino-2-pyridyl)sulfonyl]-6-(3-fluoro-5-isobutoxy-phenyl)-2-[(3R)-2,2,3-trimethylpyrrolidin-1-yl]pyridine-3-carboxamide] was tested, and the EC30 was “+++ (“+++” means <3 uM)”.

With CC(C)Oc1ccc(-c2ccc(C(=O)NS(=O)(=O)c3cccc(N)n3)c(N3CCC(Cc4ccccc4)C3C)n2)cn1 (centres unmarked) [Compound 658, N-[(6-amino-2-pyridyl)sulfonyl]-2-(3-benzyl-2-methyl-pyrrolidin-1-yl)-6-(6-isopropoxy-3-pyridyl)pyridine-3-carboxamide] the EC30 was “+++ (“+++” means <3 uM)”.

CC(C)COc1cc(F)cc(-c2ccc(C(=O)NS(=O)(=O)c3cccc(N)n3)c(N3CCCC3c3ccccn3)n2)c1 (centres unmarked) [Compound 659, N-[(6-amino-2-pyridyl)sulfonyl]-6-(3-fluoro-5-isobutoxy-phenyl)-2-[2-(2-pyridyl)pyrrolidin-1-yl]pyridine-3-carboxamide] was tested, and the EC30 was “++ (“++” means between 3 uM and 10 uM)”.

With C[C@@H]1CC[C@H](C)N1c1nc(-c2ccccc2)ccc1C(=O)NS(=O)(=O)c1ccc[nH]c1=O [Compound 660, 2-[(2S,5R)-2,5-dimethylpyrrolidin-1-yl]-N-[(2-oxo-1H-pyridin-3-yl)sulfonyl]-6-phenyl-pyridine-3-carboxamide] the EC30 was “+ (“+” means greater than 10 uM)”.

With COc1cccc(-c2ccc(C(=O)NS(=O)(=O)c3cccc(N)n3)c(Oc3c(C)cc(C)cc3C)n2)c1F [Compound 661, N-[(6-amino-2-pyridyl)sulfonyl]-6-(2-fluoro-3-methoxy-phenyl)-2-(2,4,6-trimethylphenoxy)pyridine-3-carboxamide] the EC30 was “+++ (“+++” means <3 uM)”.

Cc1cc(C)c(CN2CCc3ccccc3CC2C(=O)NS(=O)(=O)c2ccc[nH]c2=O)c(C)c1 (centres unmarked) [Compound 662, N-[(2-oxo-1H-pyridin-3-yl)sulfonyl]-3-[(2,4,6-trimethylphenyl)methyl]-1,2,4,5-tetrahydro-3-benzazepine-4-carboxamide] was tested, and the EC30 was “+ (“+” means greater than 10 uM)”.

For CC(C)COc1cc(F)cc(-c2ccc(C(=O)NS(=O)(=O)c3cccc(N)n3)c(N3CCCC3(C)Cc3ccccc3)n2)c1 (centres unmarked) [Compound 663, N-[(6-amino-2-pyridyl)sulfonyl]-2-(2-benzyl-2-methyl-pyrrolidin-1-yl)-6-(3-fluoro-5-isobutoxy-phenyl)pyridine-3-carboxamide], the EC30 was “+++ (“+++” means <3 uM)”.

With CC1CCN(c2nc(-c3cc(F)cc(OCC4CC4)c3)ccc2C(=O)NS(=O)(=O)c2ccc[nH]c2=O)CC1 [Compound 664, 6-[3-(cyclopropylmethoxy)-5-fluoro-phenyl]-2-(4-methyl-1-piperidyl)-N-[(2-oxo-1H-pyridin-3-yl)sulfonyl]pyridine-3-carboxamide] the EC30 was “+++ (“+++” means <3 uM)”.

In the case of Cc1cc(C)c(Oc2nc3c(cc2C(=O)NS(=O)(=O)c2cccc(N)n2)CCC(C)(C)C3)c(C)c1 [Compound 665, N-[(6-amino-2-pyridyl)sulfonyl]-7,7-dimethyl-2-(2,4,6-trimethylphenoxy)-6,8-dihydro-5H-quinoline-3-carboxamide], the EC30 is reported as “+++ (“+++” means <3 uM)”.

Cc1ccccc1CN1Cc2ccccc2C1(C)C(=O)NS(=O)(=O)c1cccc(N)n1 (centres unmarked) [Compound 666, N-[(6-amino-2-pyridyl)sulfonyl]-1-methyl-2-(o-tolylmethyl)isoindoline-1-carboxamide] was tested, and the EC30 was “++ (“++” means between 3 uM and 10 uM)”.

In the case of Cc1cc(C)c(Oc2nc(C(C)(C)C)ccc2C(=O)NS(=O)(=O)c2cccn(C)c2=O)c(C)c1 [Compound 667, 6-tert-butyl-N-[(1-methyl-2-oxo-3-pyridyl)sulfonyl]-2-(2,4,6-trimethylphenoxy)pyridine-3-carboxamide], the EC30 is reported as “+++ (“+++” means <3 uM)”.

For CC(C)COc1cc(F)cc(-c2ccc(C(=O)NS(=O)(=O)c3ccn[nH]3)c(N3CCC[C@@H](C)C3)n2)c1 [Compound 668, 6-(3-fluoro-5-isobutoxy-phenyl)-2-[(3R)-3-methyl-1-piperidyl]-N-(1H-pyrazol-5-ylsulfonyl)pyridine-3-carboxamide], the EC30 was “+++ (“+++” means <3 uM)”.

In the case of Cc1cc(C)c(CN2CCc3ccccc3CC2C(=O)NS(=O)(=O)c2cccc(N3CCOCC3)n2)c(C)c1 (centres unmarked) [Compound 669, N-[(6-morpholino-2-pyridyl)sulfonyl]-3-[(2,4,6-trimethylphenyl)methyl]-1,2,4,5-tetrahydro-3-benzazepine-4-carboxamide], the EC30 is reported as “+++ (“+++” means <3 uM)”.

Cc1cc(C)c(Oc2nc(C)ccc2C(=O)NS(=O)(=O)c2ccn[nH]2)c(C)c1 [Compound 670, 6-methyl-N-(1H-pyrazol-5-ylsulfonyl)-2-(2,4,6-trimethylphenoxy)pyridine-3-carboxamide] was tested, and the EC30 was “++ (“++” means between 3 uM and 10 uM)”.

With Cc1cccc(C)c1Oc1nc(-c2cc(F)cc(OCC(C)C)c2)ccc1C(=O)NS(=O)(=O)c1ccn[nH]1 [Compound 671, 2-(2,6-dimethylphenoxy)-6-(3-fluoro-5-isobutoxy-phenyl)-N-(1H-pyrazol-5-ylsulfonyl)pyridine-3-carboxamide] the EC30 was “+++ (“+++” means <3 uM)”.

In the case of Cc1cccc(-c2ccc(C(=O)NS(=O)(=O)c3cccc(N)n3)c(Oc3c(C)cc(C)cc3C)n2)c1 [Compound 672, N-[(6-amino-2-pyridyl)sulfonyl]-6-(m-tolyl)-2-(2,4,6-trimethylphenoxy)pyridine-3-carboxamide], the EC30 is reported as “+++ (“+++” means <3 uM)”.

In the case of Cc1cc(C)c(Oc2nc(-c3ccc4c(c3)OCCO4)ccc2C(=O)NS(=O)(=O)c2cccc(N)n2)c(C)c1 [Compound 673, N-[(6-amino-2-pyridyl)sulfonyl]-6-(2,3-dihydro-1,4-benzodioxin-6-yl)-2-(2,4,6-trimethylphenoxy)pyridine-3-carboxamide], the EC30 is reported as “+++ (“+++” means <3 uM)”.

In the case of Cc1cc(C)c(CN2CCCc3ccccc3C2C(=O)NS(=O)(=O)c2ccccc2)c(C)c1 (centres unmarked) [Compound 674, N-(benzenesulfonyl)-2-[(2,4,6-trimethylphenyl)methyl]-1,3,4,5-tetrahydro-2-benzazepine-1-carboxamide], the EC30 is reported as “+++ (“+++” means <3 uM)”.

With CC(C)Oc1ccc(-c2ccc(C(=O)NS(=O)(=O)c3cccc(N)n3)c(N3C(C)CC4CCCCC43)n2)cn1 (centres unmarked) [Compound 675, N-[(6-amino-2-pyridyl)sulfonyl]-6-(6-isopropoxy-3-pyridyl)-2-(2-methyl-2,3,3a,4,5,6,7,7a-octahydroindol-1-yl)pyridine-3-carboxamide] the EC30 was “+++ (“+++” means <3 uM)”.
